Source: patent publication US20100173879A1, “USE OF A COMPOUND ANTAGONIST TO THE NK2 RECEPTORS OF NEUROKININ A FOR THE PREPARATION OF DRUGS USEFUL FOR PREVENTING AND TREATING OF SEXUAL DYSFUNCTION” (SANOFI-AVENTIS, priority 2007, published 2010)

Test system: male or female adult patients, exhibiting a major depressive disorder
Assay: Eight-week multicentre double-blind clinical studies versus placebo, CSFQ questionnaire (changes in sexual functioning questionnaire)
Format: in vivo, human
Conditions: 100 mg per day orally for eight weeks
Experimental: The patients received, orally, a dose of 100 mg per day of saredutant for eight weeks, in the form of gel capsules (Example 2). he effects of saredutant compared with the placebo were evaluated using the CSFQ questionnaire (changes in sexual functioning questionnaire) comprising 14 items according to Clayton A H et al., Psychopharmacol. Bull., 1997, 33, 731-745. It is known that antidepressants have a deleterious effect on the sexual activity of patients (Montejo-Gonzales A L et al.: J. Sex Marital Ther., 1997, 23(3), 176-194). […] The table below indicates, for each group treated, the mean variation relative to the base value before treatment of the total CSFQ score and its variability between parentheses obtained over the analysis of all the studies. An increase in the total CSFQ score corresponds to an improvement in sexual function.

SMILES: CC(=O)NC1(c2ccccc2)CCN(CC[C@H](CN(C)C(=O)c2ccccc2)c2ccc(Cl)c(Cl)c2)CC1 [Saredutant, (S)-(−)-N-[4-(4-acetamido-4-phenylpiperidin-1-yl)-2-(3,4-dichlorophenyl)butyl]-N-methylbenzamide]
- effect on the dysfunctions reduced sexual desire and sexual arousal disorders (versus placebo): beneficial effect
- improvement in the total CSFQ score between the last visit (56th day) and the first visit, in comparison with the placebo group (p<0.05): significant improvement
- Total CSFQ score, mean variation relative to the base value before treatment (variability between parentheses) (all patients, n = 553, analysis of all the studies, increase = improvement in sexual function, *p < 0.05 versus placebo (ANCOVA)): 2.23 (0.64)*
